Results from patent US12622918B2, “Formulations and dosages for administering a compound that inhibits MCL1 protein” (Amgen Inc., priority 2019, dated 2026).

What was measured:
[1] = test system: Adult patients with relapsed or refractory AML; assay: Dose-escalation study in relapsed or refractory AML, data cutoff May 17, 2019; type: in vivo
Experimental: Escalating doses started at 60 mg/m^2. For dose levels ≥180 mg/m^2, a lead-in dose of 120 mg/m^2 was implemented during week 1. Primary objectives included the evaluation of safety, tolerability, and pharmacokinetics. The secondary objective was a preliminary evaluation of efficacy, assessed using ELN criteria. Exploratory endpoints included pharmacodynamic evaluation of MCL-1 inhibition in circulating AML blasts.

Namalwa = assay: Cell viability (CellTiterGlo), Namalwa; type: cell-based; conditions: NHL, 24 hours, 10% FBS, read-out: AMS 176 IC50
[2] = test system: subjects with relapsed/refractory multiple myeloma; assay: Phase 1 FIH study, multiple myeloma part 1a (QD2); type: in vivo, human
Experimental: In part 1a, subjects were enrolled across 8 cohorts, with doses ranging from 30 to 240 mg/m^2 QD2. In part 1b, subjects were enrolled across 2 cohorts, with doses of 120/180-mg/m^2 or 120/240-mg/m^2.

[3] = test system: OPM2 multiple myeloma tumor cell line; assay: Viability of OPM2 cells; type: cell-based; conditions: Homo sapiens
Rabbit MCL1 = Rabbit MCL1 (Oryctolagus cuniculus, UniProt G1T2Q0); assay: Cell-free TR-FRET BIM-binding assay, Rabbit MCL1; conditions: BIM-binding partner Rabbit MCL1; n = 3
Rabbit MCL1, sequence (G1T2Q0 1-352): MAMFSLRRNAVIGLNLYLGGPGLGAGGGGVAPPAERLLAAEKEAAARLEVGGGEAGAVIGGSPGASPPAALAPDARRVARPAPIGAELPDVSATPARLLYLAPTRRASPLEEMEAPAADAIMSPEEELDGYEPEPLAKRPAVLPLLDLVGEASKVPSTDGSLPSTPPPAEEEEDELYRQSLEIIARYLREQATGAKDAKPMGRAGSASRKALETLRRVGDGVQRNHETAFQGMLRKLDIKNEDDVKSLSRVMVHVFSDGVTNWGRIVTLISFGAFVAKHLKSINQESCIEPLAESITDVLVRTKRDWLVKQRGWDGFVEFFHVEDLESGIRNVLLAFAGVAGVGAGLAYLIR

BAK = BAK activation in OPM2-Luc tumor xenografts (PD); type: in vivo, mice; conditions: for BAK activation: 2-, vs vehicle p<0.05
Experimental: Activation of the pro-apoptotic pore-forming protein BAK and proteolytic cleavage of the cysteine-aspartic acid protease caspase 3 (hallmarks of the induction of apoptosis) in MCL1-dependent OPM2-Luc multiple myeloma tumor cells served as a PD assay. Female athymic nude mice were injected with 5×10^6 cells in 0.1 mL subcutaneously (SC). […] Mice were euthanized 2, 4, 8, 12, and 24 hours postdose (n=3/group), terminal plasma samples were collected for PK analysis, and tumors were halved and snap frozen in liquid nitrogen for PK and molecular analyses. Tumor lysates were prepared for evaluation of BAK activation and caspase 3 cleavage using an electrochemiluminescence immunoassay. Tumors treated with vehicle (25% HPβCD, pH 8) served as a negative control and indicated the baseline level of apoptosis.

KMS-28-PE = assay: Cell viability (CellTiterGlo), KMS-28-PE; type: cell-based; conditions: Multiple myeloma, 24 hours, 10% FBS, read-out: AMS 176 IC50
[4] = test system: OPM2-Luc orthotopic tumors; assay: OPM2-Luc multiple myeloma orthotopic model, AMG 176 plus carfilzomib; type: in vivo; conditions: AMG 176 20 mg/kg orally once daily; carfilzomib 3 mg/kg IV twice weekly; day 4 until day 20; female NSG mice
Experimental: On day 0, female NSG mice were injected IV with 1×10^6 OPM2-Luc human OPM2-Luc multiple myeloma tumor cells transfected with the firefly luciferase gene.

[5] = test system: OPM2-Luc tumor xenografts; assay: OPM2-Luc xenograft efficacy, intermittent dosing; type: in vivo; conditions: for animals tumor free: day 26
Experimental: OPM2-Luc cells (5×10^6) were implanted subcutaneously into female athymic nude mice. […] With all tested doses and schedules, dose-dependent TGI was observed (FIG. 5). […] Six of 10 animals in the 60 mg/kg 5 days on/2 days off group and 10 of 10 animals in the once daily group were tumor free on day 26.

Karoas620 = assay: Cell viability (CellTiterGlo), Karoas620; type: cell-based; conditions: Karoas620, Multiple myeloma; 24 hours; 10% FBS; read-out: AMS 176 IC50
MOLM-13 = assay: Cell viability (CellTiterGlo), MOLM-13; type: cell-based; conditions: Homo sapiens; MOLM-13, AML; 24 hours; 10% FBS; read-out: AMS 176 IC50
[6] = Distribution into blood cells; type: in vitro ADME
[7] = test system: OPM2-Luc tumor xenografts; assay: OPM2-Luc xenograft efficacy, once-weekly dosing; type: in vivo
Experimental: Female athymic nude mice were injected subcutaneously with 5×10^6 human OPM2-Luc multiple myeloma tumor cells. […] Tumor volume and body weight were measured twice per week through day 26. […] In the 50 mg/kg intraperitoneal group, 98% regression was observed (p<0.0001) (FIG. 6).

Raji = assay: Cell viability (CellTiterGlo), Raji; type: cell-based; conditions: Homo sapiens, NHL, 24 hours, 10% FBS, read-out: AMS 176 IC50
human blood = assay: In vitro hemolysis of whole blood, human; conditions: highest concentration tested, 0.25 mg/mL
[8] = TEAEs occurring in ≥2 patients, N = 11

## CO[C@H]1/C=C/C[C@H](C)[C@@H](C)S(=O)(=O)NC(=O)c2ccc3c(c2)N(C[C@@H]2CC[C@H]21)C[C@@]1(CCCc2cc(Cl)ccc21)CO3 [AMG 176]
[1]; 60-180 mg/m^2
  plasma exposures versus dose: increased in a dose-related manner
[1]; AML, 11 patients
  Treatment-related AEs, patients: 46%
  fatal adverse events: No fatal adverse events were observed
  grade ≥3 TEAEs, patients: 73%
  grade ≥3 anemia: 18%
  grade ≥3 treatment-related AEs, patients: 18%
  nausea, any grade: 36%
  peripheral edema, any grade: 36%
[1]; AML, 11 patients, 60-180 mg/m^2 IV
  TEAEs of any grade, patients: 91%
[1]; Grade ≥3 TEAEs occurring in ≥2 patients, N = 11
  Anemia, Grade ≥3: 2 (18.2) n (%)
[1]; IV infusion over a minimum of 2 hours
  time of maximum plasma concentrations: close to the end of intravenous infusion
[1]; Patients (N = 11)
  All TEAEs: 10 (90.9) n (%)
  TEAEs Fatal: 0 n (%)
  TEAEs Grade ≥3: 8 (72.7) n (%)
  TEAEs Serious: 8 (72.7) n (%)
[1]; [8]
  Anemia: 2 (18.2) n (%)
  Hypokalemia: 2 (18.2) n (%)
  Hypomagnesemia: 2 (18.2) n (%)
  Increased blood bilirubin level: 2 (18.2) n (%)
  Nausea: 4 (36.4) n (%)
  Peripheral edema: 4 (36.4) n (%)
  Vomiting: 2 (18.2) n (%)
[1]; at the data cutoff date
  maximum tolerated dose: not yet reached
[1]; monotherapy, dose levels evaluated
  safety, tolerability, and pharmacokinetic profile: acceptable
[1]; patient achieving CRi, 3 hours postinfusion
  pharmacodynamic impact in peripheral blood AML blasts: release of the proapoptotic protein Bax and activation of effector caspase 3
Namalwa
  IC50: 237 nM
[2]; MM part 1a
  Grade 3 adverse events, subjects: 65%
  Serious adverse events, subjects: 31%
  adverse events considered related to AMG 176, subjects: 69%
  adverse events leading to discontinuation of investigational product: No adverse event led to discontinuation
  anemia of grade 3 or higher: 15%
  decreased neutrophil count of grade 3 or higher: 8%
  decreased white blood cell count of grade 3 or higher: 8%
  grade 4 adverse events, subjects: 31%
  hypertension of grade 3 or higher: 8%
  neutropenia of grade 3 or higher: 31%
  related diarrhea: 19%
  related nausea: 23%
  related neutropenia: 23%
[2]; MM part 1a QD2, 26 subjects
  treatment-emergent adverse events, subjects: 96%
[2]; MM part 1a, any grade
  anemia, subjects: 27%
  diarrhea, subjects: 31%
  fatigue, subjects: 27%
  nausea, subjects: 35%
  neutropenia, subjects: 31%
[2]; MM part 1a, 1 subject in the 240 mg/m^2 cohort, fatal
  dose-limiting toxicity (DLT) reported: tumor lysis syndrome
[2]; MM part 1a, 25 subjects, preliminary
  exposures (Cmax and AUC) versus dose: generally increased with increasing doses
[2]; MM part 1a, hepatic failure (50 mg/m^2, not related), tumor lysis syndrome (240 mg/m^2, related)
  fatal adverse events: Two
[3]; OPM-2, growth medium containing 5% human serum
  IC50: 703 nM
[3]; OPM-2, growth medium containing 10% fetal bovine serum
  IC50: 236 nM
[3]; OPM-2, serum-free growth medium
  IC50: 15.5 nM
Rabbit MCL1
  IC50: 0.191 nM
BAK; 30 mg/kg oral gavage, 4-, and 8-hour time points
  BAK activation: Statistically significant BAK activation
BAK; 60 mg/kg oral gavage
  time point of greatest BAK activation: 4 h
BAK; 60 mg/kg oral gavage, 4-, 8-, and 12-hour time points
  BAK activation: Statistically significant BAK activation
BAK; OPM2-Luc tumor xenografts, summary statement
  induction of multiple markers of apoptosis, including BAK activation and caspase 3 cleavage: dose-dependent induction
KMS-28-PE
  IC50: 12000 nM
[4]
  TGI (tumor burden): 86%
[5]; 30 mg/kg 2 days on/5 days off
  TGI: 54%
[5]; 30 mg/kg 5 days on/2 days off
  TGI: 85%
[5]; 30 mg/kg and 60 mg/kg, two days on/5 days off and 5 days on/2 days off, summary statement
  effect on growth of established OPM2-Luc tumors: significantly inhibited the growth
[5]; 30 mg/kg once daily oral gavage
  TGI: 84%
[5]; 60 mg/kg 2 days on/5 days off
  tumor regression: 21%
[5]; 60 mg/kg 5 days on/2 days off
  tumor regression: 87%
  animals tumor free: Six of 10
[5]; 60 mg/kg once daily
  tumor regression: 100%
  animals tumor free: 10 of 10
[5]; 30 or 60 mg/kg, all schedules
  overt toxicity by body weight and body score assessment: No evidence of overt toxicity
Karoas620
  IC50: 487 nM
MOLM-13
  IC50: 241 nM
[6]
  distribution into blood cells: did not preferentially distribute into blood cells
[7]; 50 mg/kg intraperitoneally once per week
  tumor regression: 98%
[7]; 50 mg/kg orally once per week
  TGI: 97%
[7]; 100 mg/kg once per week, day 26
  animals tumor free: Five out of 10
[7]; 100 mg/kg once-weekly oral, as stated in summary b107
  tumor growth inhibition (TGI): 70%
[7]; 100 mg/kg orally once per week
  tumor regression: 70%
[7]; once-weekly dosing groups
  overt toxicity by changes in body weight: No evidence of overt toxicity
Raji
  IC50: 3550 nM
Human blood
  hemolysis of whole blood: not hemolytic
